Measured values reported in patent US20050282786A1, “Method for reducing c-rective protein levels with non-antibacterial tetracycline formulations” (priority 2002, published 2005).
Where “and” joins values, the source holds several entries; their conditions need not be identical. Equal values may be shown once. Where a name gives a salt, the structure may show the parent alone.

Key:
[1] = 250 mg every six hours over a twenty-four hour period; cited from earlier work
[2] = single dose of two 100 mg tablets, adult human; cited from earlier work
[3] = CMT-3 serum levels in humans; assay type: in vivo, human; details: dose of about 10 to about 20 mg/day
Procedure: Non-antibacterial tetracycline compounds can be used in higher amounts than antibacterial tetracyclines, while avoiding the indiscriminate killing of bacteria, and the emergence of resistant bacteria. For example, 6-demethyl-6-deoxy-4-dedimethylaminotetracycline (CMT-3) may be administered in doses of about 10 to about 200 mg/day, or in amounts that result in serum levels in humans of about 1.0 μg/ml to about 10 μg/ml. For example, a dose of about 10 to about 20 mg/day produces serum levels in humans of about 1.0 μg/ml.

[4] = system: C-reactive protein (CRP); experiment: Prospective randomized six-month study of low-dose doxycycline versus placebo: C-reactive protein levels in patients after acute coronary syndrome; assay type: in vivo, human; details: for 6-Month CRP level: after six months of therapy, P<0.05 vs baseline; for 6-Month CRP level / Baseline CRP level: mean ± S.E.M.; for Reduction Due To Treatment (CRP): six months vs baseline; for Baseline CRP level / Baseline CRP: study entry; for Six Month CRP: six months
Procedure: A prospective, randomized study was conducted over six (6) months to investigate the effectiveness of low-dose doxycycline (LDD) versus placebo, in the prevention of subsequent plaque rupture events in patients enrolled after an initial acute coronary syndrome.
Biochemical markers of inflammation were assessed at study entry and after six (6) months of therapy in a subset of patients. A total of thirty (30) patients completed the study of whom thirteen (13) were randomized to placebo and seventeen (17) to LDD. There were no significant differences in age, male gender, hypertension, diabetes, smoking, previous cardiac history, extent of coronary disease, presentation with acute myocardial infarction or unstable angina, or percutaneous coronary intervention between LDD and placebo treated patients.
At six months clinical follow-up, there was no difference in the composite endpoint of cardiovascular death, myocardial infarction or troponin-positive unstable angina in LDD compared to placebo treated patients. […] In placebo-treated patients, CRP was 5.2 μg/ml at study entry and 4.9 μg/ml at six months (P=not significant (n.s.)).
Patients with higher baseline CRP levels were reduced by 58% from 7.2 μg/ml to 3.0 μg/ml (P<0.001). In placebo-treated patients with higher baseline CRP, CRP levels were decreased by 23% (7.1 μg/ml to 5.5 μg/ml).

[5] = all LDD patients (n = 17), listed as Low-Dose Doxycycline
[6] = patients with higher CRP (>5 μg/ml)
[7] = patients with lower baseline CRP (≦5 μg/ml)

Compound: CN(C)[C@@H]1C(O)=C(C(N)=O)C(=O)[C@@]2(O)C(O)=C3C(=O)c4c(O)cccc4[C@@](C)(O)[C@H]3C[C@@H]12 [tetracycline HCl]
- peak plasma concentration [1]: approximately 3 μg/ml

Compound: CN(C)c1ccc(O)c2c1C[C@H]1C[C@H]3[C@H](N(C)C)C(O)=C(C(N)=O)C(=O)[C@@]3(O)C(O)=C1C2=O [minocycline HCl]
- minocycline serum level, average [2]: 2.24 µg/mL

Compound: NC(=O)C1=C(O)CC2CC3Cc4cccc(O)c4C(=O)C3=C(O)C2(O)C1=O (stereo not drawn) [CMT-3, 4-dedimethylaminosancycline]
- serum levels in humans [3]: about 1.0 μg/ml

Compound: C[C@H]1c2cccc(O)c2C(=O)C2=C(O)[C@]3(O)C(=O)C(C(N)=O)=C(O)[C@@H](N(C)C)[C@@H]3[C@@H](O)[C@@H]21 [LDD, doxycycline]
- 6-Month CRP level ([4]; all LDD patients (n = 17)): 2.6 µg/mL
- 6-Month CRP level [4, 5]: 2.6 ± 0.4 µg/mL
- Reduction Due To Treatment (CRP) ([4]; all LDD patients (n = 17)): 46%
- Reduction Due To Treatment (CRP) [4, 5]: 45%
- Baseline CRP level ([4]; all LDD patients (n = 17)): 4.8 µg/mL
- Baseline CRP level [4, 5]: 4.8 ± 0.6 µg/mL
- Reduction Due To Treatment (CRP) [4, 6]: 58%
- Six Month CRP ([4]; patients with higher CRP (>5 μg/ml), P<0.001 vs baseline): 3.0 μg/ml and 3.0 ± 0.7^a μg/ml
- Baseline CRP [4, 6]: 7.2 µg/mL and 7.2 ± 0.6 µg/mL
- Reduction Due To Treatment (CRP) [4, 7]: 23%
- Six Month CRP ([4]; patients with lower baseline CRP (≦5 μg/ml), n.s. vs baseline): 2.3 μg/ml and 2.3 ± 0.5^b μg/ml
- Baseline CRP [4, 7]: 3.0 µg/mL and 3.0 ± 0.4 µg/mL
